Data on seven molecules can be found in EP0942906B1, “COMPOUNDS USEFUL FOR INHIBITION OF FARNESYL PROTEIN TRANSFERASE” (SCHERING CORPORATION, priority 1996, dated 1998).

Experiment [1] has as its target farnesyl protein transferase (Homo sapiens, UniProt P49354+P49356). The experiment is described as follows: FPT IC50, inhibition of farnesyl protein transferase, in vitro enzyme assay (procedure of WO 95/10516). Format: biochemical. Particulars: range stated for the listed group of compounds. The procedure:
(§1) FPT IC50 (inhibition of farnesyl protein transferase, in vitro enzyme assay) and COS Cell IC50 (Cell-Based Assay) were determined following the assay procedures described in WO 95/10516, published April 20, 1995. GGPT IC50 (inhibition of geranylgeranyl protein transferase, in vitro enzyme assay), Cell Mat Assay, and anti-tumor activity (in vivo anti-tumor studies) could be determined by the assay procedures described in WO 95/10516.

In a further experiment the test system is COS Cell. The experiment is described as follows: COS Cell IC50 (Cell-Based Assay, procedure of WO 95/10516). Particulars: range stated for the listed group of compounds, read-out: Cos Cell. As to the method: as §1
Another experiment has as its system Human tumor cells. Kind of experiment: Soft Agar Assay (anchorage-independent growth, colony count after MTT staining). Format: cell-based. Particulars: range stated for the listed group of compounds. As to the method: Anchorage-independent growth is a characteristic of tumorigenic cell lines. Human tumor cells are suspended in growth medium containing 0.3% agarose and an indicated concentration of a farnesyl transferase inhibitor. The solution is overlayed onto growth medium solidified with 0.6% agarose containing the same concentration of farnesyl transferase inhibitor as the top layer. After the top layer is solidified, plates are incubated for 10-16 days at 37°C under 5% CO2 to allow colony outgrowth. After incubation, the colonies are stained by overlaying the agar with a solution of MTT (3-[4,5-dimethylthiazol-2-yl]-2.5-diphenyltetrazolium bromide, Thiazolyl blue) (1 mg/mL in PBS). Colonies can be counted and the IC50's can be determined.

Setting [2] is: k-ras, read-out: FPT IC50 (k-ras).
[3] abbreviates: ras form not stated, read-out: FPT IC50.

Read-outs that look alike come from different tables or passages of the source. A value given as a limit tells only on which side of the number the result lay.

Sequence of farnesyl protein transferase (P49356 whole entry, one chain of several): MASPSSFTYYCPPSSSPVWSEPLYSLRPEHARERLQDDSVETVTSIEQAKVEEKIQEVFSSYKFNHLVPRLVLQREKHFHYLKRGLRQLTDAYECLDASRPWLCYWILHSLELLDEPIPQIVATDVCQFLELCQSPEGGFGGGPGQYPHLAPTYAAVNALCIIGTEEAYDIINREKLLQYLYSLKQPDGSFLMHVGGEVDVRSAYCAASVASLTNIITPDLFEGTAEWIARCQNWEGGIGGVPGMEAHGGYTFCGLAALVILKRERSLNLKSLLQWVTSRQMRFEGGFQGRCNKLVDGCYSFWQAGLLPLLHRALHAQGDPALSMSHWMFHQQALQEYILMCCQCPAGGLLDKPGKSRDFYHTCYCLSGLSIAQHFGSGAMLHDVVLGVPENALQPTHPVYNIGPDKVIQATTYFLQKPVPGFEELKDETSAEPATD

Consider `Cc1nccn1CC(=O)N1CCC(CC(=O)N2CCC([C@H]3c4ncc(Br)cc4CCc4cc(Cl)cc(Br)c43)CC2)CC1` [Compound 10.0-B], for which the IC50 in experiment [1] (setting [2]) is 0.0145 to 0.0712 µM; in experiment [1] (setting [3]), 0.0007 to 0.018 µM; with COS Cell, at least 0.009 µM; with Human tumor cells, at least 0.0195 µM.
With `O=C(CC1CCOCC1)N1CCC(CC(=O)N2CCC([C@H]3c4ncc(Br)cc4CCc4cc(Cl)cc(Br)c43)CC2)CC1` [Compound 85.0-B], the IC50 in experiment [1] (setting [3]) was 0.0007 to 0.018 µM; in the experiment on COS Cell, at least 0.009 µM; with Human tumor cells it was at least 0.0195 µM.
On to `O=C(CC1CCN(C(=O)Cn2cnc3cccnc32)CC1)N1CCC([C@H]2c3ncc(Br)cc3CCc3cc(Cl)cc(Br)c32)CC1` [Compound 13.0-B], for which the IC50 in experiment [1] (setting [2]) was 0.0145 to 0.0712 µM; in experiment [1] (setting [3]) it was 0.0007 to 0.018 µM; with COS Cell it was at least 0.009 µM; with Human tumor cells, at least 0.0195 µM.
`O=C(CC1CCN(C(=O)CC2COCCO2)CC1)N1CCC([C@H]2c3ncc(Br)cc3CCc3cc(Cl)cc(Br)c32)CC1` (stereo partly drawn) [Compound 114.2-B]: the results for the IC50 (in experiment [1] (setting [3]); with COS Cell; with Human tumor cells) were 0.0007 to 0.018 µM, at least 0.009 µM and at least 0.0195 µM, respectively.
Take `O=C(CC1CCN(C(=O)CN2CCS(=O)(=O)CC2)CC1)N1CCC([C@H]2c3ncc(Br)cc3CCc3cc(Cl)cc(Br)c32)CC1` [Compound 6.0-B]: the IC50 in experiment [1] (setting [2]) is 0.0145 to 0.0712 µM; in experiment [1] (setting [3]), 0.0007 to 0.018 µM; in the experiment on COS Cell, at least 0.009 µM; in the experiment with Human tumor cells it was at least 0.0195 µM.
`COC(=O)c1cccn1CC(=O)N1CCC(CC(=O)N2CCC([C@H]3c4ncc(Br)cc4CCc4cc(Cl)cc(Br)c43)CC2)CC1` [Compound 35.0-B]: the results for the IC50 (in experiment [1] (setting [3]); in the experiment with COS Cell; in the experiment on Human tumor cells) were 0.0007 to 0.018 µM, at least 0.009 µM and at least 0.0195 µM, respectively.
For `COC(=O)Cc1cn(CC(=O)N2CCC(CC(=O)N3CCC([C@H]4c5ncc(Br)cc5CCc5cc(Cl)cc(Br)c54)CC3)CC2)cn1` [Compound 56.0-B], in that order: 0.0007 to 0.018 µM, at least 0.009 µM and at least 0.0195 µM.
